2 compounds from ChEMBL document CHEMBL1275384, “Structure-activity relationships of benzimidazole-based selective inhibitors of the mitogen activated kinase-5 signaling pathway” (2010) can be followed below.

Experiment [1] can be described thus: Cytotoxicity against human […] cells at 10 uM assessed as cell growth relative to control. Type of experiment: functional. Conditions: read-out: Activity.
A further experiment deals with K562. The experiment in a line: Cytotoxicity against human K562 cells at 10 uM assessed as cell growth relative to control. The format is functional. Conditions: read-out: Activity.
The test system of a further experiment is HOP-62. The experiment in a line: Cytotoxicity against human HOP62 cells at 10 uM assessed as cell growth relative to control. The format is functional. Conditions: read-out: Activity.
The subject of another experiment is SK-MEL-2. The experiment in a line: Cytotoxicity against human SK-MEL-2 cells at 10 uM assessed as cell growth relative to control. The note with it: read-out: Activity. The format is functional.
The subject of another experiment is NCI-H460. The experiment in a line: Cytotoxicity against human NCI-H460 cells at 10 uM assessed as cell growth relative to control. The format is functional. The note with it: read-out: Activity.
Experiment [2] deals with Dual specificity mitogen-activated protein kinase kinase; MEK1/2 (Homo sapiens) (UniProt P36507+Q02750). The note with it: HEK293, at 10 µM.
Description: Inhibition of EGF-induced MEK1/2 activity in HEK293 cells assessed as phosphorylated ERK1/2 level at 10 uM after 1 hr by Western blotting relative to control
Another experiment deals with SNB-19. The experiment in a line: Cytotoxicity against human SNB19 cells at 10 uM assessed as cell growth relative to control. Type of experiment: functional. Conditions: read-out: Activity.
The next experiment relates to HOP-92. The experiment in a line: Cytotoxicity against human HOP92 cells at 10 uM assessed as cell growth relative to control. The format is functional. The note with it: read-out: Activity.
The test system of a further experiment is DU-145. The experiment in a line: Cytotoxicity against human DU145 cells at 10 uM assessed as cell growth relative to control. Type of experiment: functional. Conditions: read-out: Activity.
A further experiment concerns SK-OV-3. The experiment in a line: Cytotoxicity against human SKOV3 cells at 10 uM assessed as cell growth relative to control. The format is functional. The note with it: read-out: Activity.
In the next experiment the test system is M14. The experiment in a line: Cytotoxicity against human M14 cells at 10 uM assessed as cell growth relative to control. Conditions: read-out: Activity. The format is functional.
The next experiment relates to MDA-MB-435. The experiment in a line: Cytotoxicity against human MDA-MB-435 cells at 10 uM assessed as cell growth relative to control. Conditions: read-out: Activity. Type of experiment: functional.
In a further experiment the test system is OVCAR-5. The experiment in a line: Cytotoxicity against human OVCAR5 cells at 10 uM assessed as cell growth relative to control. The format is functional. Conditions: read-out: Activity.
A further experiment relates to SF-295. The experiment in a line: Cytotoxicity against human SF295 cells at 10 uM assessed as cell growth relative to control. Type of experiment: functional. The note with it: read-out: Activity.
Another experiment relates to Malme-3M. The experiment in a line: Cytotoxicity against human MALME-3M cells at 10 uM assessed as cell growth relative to control. Type of experiment: functional. Conditions: read-out: Activity.
Another experiment has as its system A549. The experiment in a line: Cytotoxicity against human A549 cells at 10 uM assessed as cell growth relative to control. The format is functional. The note with it: read-out: Activity.
In a further experiment the test system is PC-3. The experiment in a line: Cytotoxicity against human PC3 cells at 10 uM assessed as cell growth relative to control. The format is functional. Conditions: read-out: Activity.

Dual specificity mitogen-activated protein kinase kinase; MEK1/2 (Homo sapiens), sequence (P36507 whole entry, looked up): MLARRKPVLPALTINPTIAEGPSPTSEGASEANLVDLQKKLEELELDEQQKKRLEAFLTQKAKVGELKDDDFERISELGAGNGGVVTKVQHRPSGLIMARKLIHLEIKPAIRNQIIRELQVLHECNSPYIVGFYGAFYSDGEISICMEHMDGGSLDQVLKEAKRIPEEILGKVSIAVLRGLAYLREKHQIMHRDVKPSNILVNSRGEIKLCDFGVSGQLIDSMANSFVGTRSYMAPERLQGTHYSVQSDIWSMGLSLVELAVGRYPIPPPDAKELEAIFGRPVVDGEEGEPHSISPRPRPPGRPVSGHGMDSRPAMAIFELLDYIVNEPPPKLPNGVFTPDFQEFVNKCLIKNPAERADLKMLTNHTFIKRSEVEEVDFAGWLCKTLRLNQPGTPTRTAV
Dual specificity mitogen-activated protein kinase kinase; MEK1/2 (Homo sapiens), sequence (Q02750 whole entry, looked up): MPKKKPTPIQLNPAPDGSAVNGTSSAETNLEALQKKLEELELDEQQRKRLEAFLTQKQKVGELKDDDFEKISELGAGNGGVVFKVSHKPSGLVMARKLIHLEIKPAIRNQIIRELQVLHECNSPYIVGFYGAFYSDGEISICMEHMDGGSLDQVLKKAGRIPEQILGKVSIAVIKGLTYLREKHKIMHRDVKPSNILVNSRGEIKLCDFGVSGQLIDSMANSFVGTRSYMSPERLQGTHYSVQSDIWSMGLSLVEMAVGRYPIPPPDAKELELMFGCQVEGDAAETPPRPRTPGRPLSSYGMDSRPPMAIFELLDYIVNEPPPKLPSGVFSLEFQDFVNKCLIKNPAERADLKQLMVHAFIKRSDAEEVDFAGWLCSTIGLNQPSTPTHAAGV

As for `COc1cc(NCc2ccccc2)c2ncn(C(C)C)c2c1`, the growth at 10 µM in experiment [1] worked out at 71.5%; in the experiment with K562, 64.2%; in the experiment on HOP-62 it was 101%; in the experiment on SK-MEL-2, 91.6%; in the experiment on NCI-H460 it was 107%; in the experiment on SNB-19, 90.7%. Besides, the growth at 10 µM came to 64.5% with HOP-92; 136% in the experiment on DU-145; 110% in the experiment on SK-OV-3; 108% in the experiment with M14; 122% in the experiment on MDA-MB-435; 97.2% in the experiment with OVCAR-5. The figures for the growth at 10 µM with SF-295, with Malme-3M and in the experiment with A549 were 138%, 49.2% and 110%, respectively. The compound further yielded an inhibition in [2] of 54%.
On to `COCCCOc1cc(NCc2ccccc2)c2ncn(C(C)C)c2c1`, for which the growth at 10 µM in experiment [1] is 89.2%; in the experiment with K562 it was 90.9%; in the experiment on HOP-62, 85.7%; in the experiment with SK-MEL-2 it was 92.7%; with PC-3, 96.1%; in the experiment with NCI-H460 it was 85.2%. Besides, the growth at 10 µM in the experiment with SNB-19 came to 90.3%; in the experiment on HOP-92, 90.9%; in the experiment with DU-145, 99.2%; with SK-OV-3, 101%; with M14 it was 104%; in the experiment on MDA-MB-435 it was 110%. In addition, the growth at 10 µM with OVCAR-5 worked out at 91.5%; with SF-295 it was 97.4%; with Malme-3M, 113%; with A549, 94%.
